In US10227357B2, “Compounds and methods for kinase modulation, and indications therefor” (Plexxikon Inc., priority 2012, dated 2019):

Columns and labels:
[1] = target: T1, c-kit mutant D816V (Homo sapiens, UniProt P10721, D816V/DEL694-753); experiment: c-Kit mutant D816V biochemical assay, AlphaScreen; conditions: c-kit D816V biochemical inhibitory activity; read-out: Biochemical activity (IC50 μM) Kit D816V
T1 construct: residues 551-934, kinase insertion domain residues 694-753 deleted; 6x-histidine (N); made in house; host or cells: E. coli Arctic Express (DE3) RIL (Stratagene)
Outline: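 Purified His-tagged c-Kit D816V (E. coli-expressed) assayed in 25 mM HEPES pH 7.2 with Mg/Mn, 5% DMSO and 10 μM ATP, 30 min at room temperature, 8-point 1:3 dilutions. Phosphorylation detected by AlphaScreen with streptavidin donor and PY20 acceptor beads; IC50 from signal versus concentration.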

[2] = target: T2, c-kit kinase (Homo sapiens, UniProt P10721); experiment: c-Kit biochemical assay, AlphaScreen, 10 μM ATP; conditions: c-kit biochemical inhibitory activity; read-out: Biochemical activity (IC50 μM) Kit
T2 construct: The c-kit (or kinase domain thereof) is an active kinase in AlphaScreen; poly-Histidine tag (in-house protein only) (cleaved yes); host or cells: E. coli BL21(DE3)RIL, co-expressed with PTP1B
Outline: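 His-tagged c-Kit expressed in E. coli with co-expressed PTP1B (dephosphorylated), tag removed; 0.1 ng per reaction with biotinylated-peptide substrate in 50 mM HEPES pH 7.2, 5 mM MgCl2, 5 mM MnCl2, 5% DMSO, 10 μM ATP, 1 h at room temperature. Phosphorylation detected by AlphaScreen (streptavidin donor, PY20 acceptor beads); IC50 from 8-point 1:3 dilution series.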

T1 sequence (P10721 with tags, fused parts or gaps DEL694-753/D816V): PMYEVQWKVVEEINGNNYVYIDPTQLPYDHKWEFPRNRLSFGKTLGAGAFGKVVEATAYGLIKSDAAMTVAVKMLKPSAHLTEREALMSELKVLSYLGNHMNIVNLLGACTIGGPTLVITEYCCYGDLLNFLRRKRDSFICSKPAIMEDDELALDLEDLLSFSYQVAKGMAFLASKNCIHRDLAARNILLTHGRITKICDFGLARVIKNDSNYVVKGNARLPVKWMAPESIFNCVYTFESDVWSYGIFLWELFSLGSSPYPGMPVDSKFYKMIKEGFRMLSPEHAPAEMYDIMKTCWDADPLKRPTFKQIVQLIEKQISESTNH
T2 sequence (P10721 26-976): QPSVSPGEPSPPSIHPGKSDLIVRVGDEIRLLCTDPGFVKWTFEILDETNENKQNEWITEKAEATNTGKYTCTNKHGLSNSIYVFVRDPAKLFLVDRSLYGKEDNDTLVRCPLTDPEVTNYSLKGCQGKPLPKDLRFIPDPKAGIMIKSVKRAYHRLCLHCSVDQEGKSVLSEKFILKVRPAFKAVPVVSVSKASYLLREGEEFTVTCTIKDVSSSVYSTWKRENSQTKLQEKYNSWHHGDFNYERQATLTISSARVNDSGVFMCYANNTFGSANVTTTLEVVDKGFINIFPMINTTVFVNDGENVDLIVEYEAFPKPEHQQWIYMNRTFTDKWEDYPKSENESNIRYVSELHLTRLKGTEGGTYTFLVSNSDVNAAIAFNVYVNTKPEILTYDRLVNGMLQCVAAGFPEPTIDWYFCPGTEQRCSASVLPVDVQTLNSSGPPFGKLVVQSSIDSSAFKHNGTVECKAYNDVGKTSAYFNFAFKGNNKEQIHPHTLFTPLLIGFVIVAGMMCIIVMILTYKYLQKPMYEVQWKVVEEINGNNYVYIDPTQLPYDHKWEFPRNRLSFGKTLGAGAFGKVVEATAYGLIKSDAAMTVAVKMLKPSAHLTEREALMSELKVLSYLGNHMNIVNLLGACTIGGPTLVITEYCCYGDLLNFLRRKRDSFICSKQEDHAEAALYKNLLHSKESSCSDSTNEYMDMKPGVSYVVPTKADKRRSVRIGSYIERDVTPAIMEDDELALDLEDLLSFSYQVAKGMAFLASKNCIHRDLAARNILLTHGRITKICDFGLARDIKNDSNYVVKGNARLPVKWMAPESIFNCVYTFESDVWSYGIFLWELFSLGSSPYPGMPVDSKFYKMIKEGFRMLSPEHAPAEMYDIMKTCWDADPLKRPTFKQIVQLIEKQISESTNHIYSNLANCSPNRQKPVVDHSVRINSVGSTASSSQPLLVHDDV

Row | SMILES | IC50 [1] [µM] | IC50 [2] [µM]
1 | COc1ccc(S(=O)(=O)Nc2ccc(-c3ncnc4cc(OCCCN5CCCCC5)c(OC)cc34)c(F)c2)cc1 [P-0255, N-[3-fluoro-4-[6-methoxy-7-[3-(1-piperidyl)propoxy]quinazolin-4-yl]phenyl]-4-methoxy-benzenesulfonamide] | 0.0001 to 1 | 0.0001 to 1
2 | Cc1cc2c(-c3ccc(NS(=O)(=O)c4ccc(C)c(F)c4)c(F)c3)ncnc2[nH]1 [P-0350, 3-fluoro-N-[2-fluoro-4-(6-methyl-7H-pyrrolo[2,3-d]pyrimidin-4-yl)phenyl]-4-methyl-benzenesulfonamide] | 1 to 10 | 1 to 10
3 | Cn1cc(-c2cc3c(N4CCC(NS(=O)(=O)c5cc(Cl)c(Cl)s5)CC4)ncnc3[nH]2)cn1 [P-0461, 4,5-dichloro-N-[1-[6-(1-methylpyrazol-4-yl)-7H-pyrrolo[2,3-d]pyrimidin-4-yl]-4-piperidyl]thiophene-2-sulfonamide] | 0.0001 to 1 | 1 to 10
4 | N#CC1(c2ccc(-c3cc4c(N5CCN(C(=O)Nc6ccc(OC(F)(F)F)cc6)CC5)ncnc4[nH]3)cc2)CC1 [P-0113, 4-[6-[4-(1-cyanocyclopropyl)phenyl]-7H-pyrrolo[2,3-d]pyrimidin-4-yl]-N-[4-(trifluoromethoxy)phenyl]piperazine-1-carboxamide] | 1 to 10 | 0.0001 to 1
5 | NS(=O)(=O)c1ccc(-c2cc3c(N4CCN(C(=O)NCc5ccc(F)cc5)CC4)ncnc3[nH]2)cc1 [P-0099, N-[(4-fluorophenyl)methyl]-4-[6-(4-sulfamoylphenyl)-7H-pyrrolo[2,3-d]pyrimidin-4-yl]piperazine-1-carboxamide] | 0.0001 to 1 | 1 to 10
6 | COc1cc2ncnc(-c3ccc(NS(C)(=O)=O)cc3F)c2cc1OCCCN1CCOCC1 [P-0252, N-[3-fluoro-4-[7-methoxy-6-(3-morpholinopropoxy)quinazolin-4-yl]phenyl]methanesulfonamide] | 0.0001 to 1 | 10 to 200
7 | O=C(C1CC1)N1CC=C(c2cc3ncnc(-c4ccc(NS(=O)(=O)C5CC5)cc4)c3s2)CC1 [P-0571, N-[4-[6-[1-(cyclopropanecarbonyl)-3,6-dihydro-2H-pyridin-4-yl]thieno[3,2-d]pyrimidin-4-yl]phenyl]cyclopropanesulfonamide] | 0.0001 to 1 | 0.0001 to 1
8 | Cc1cc2c(-c3ccc(NS(=O)(=O)c4ccc5c(c4)OCO5)cc3)ncnc2[nH]1 [P-0294, N-[4-(6-methyl-7H-pyrrolo[2,3-d]pyrimidin-4-yl)phenyl]-1,3-benzodioxole-5-sulfonamide] | 0.0001 to 1 | 10 to 200
9 | C[C@H]1CN(c2ncnc3[nH]c(-c4ccncc4)cc23)CCN1C(=O)Nc1ccc(Cl)cc1 [P-0045, (2S)-N-(4-chlorophenyl)-2-methyl-4-[6-(4-pyridyl)-7H-pyrrolo[2,3-d]pyrimidin-4-yl]piperazine-1-carboxamide] | 1 to 10 | 1 to 10
10 | Cc1cc2c(-c3ccc(NS(=O)(=O)c4cccc(Cl)c4F)c(F)c3)ncnc2[nH]1 [P-0351, 3-chloro-2-fluoro-N-[2-fluoro-4-(6-methyl-7H-pyrrolo[2,3-d]pyrimidin-4-yl)phenyl]benzenesulfonamide] | 10 to 200 | 1 to 10
11 | COCCOc1cc2ncnc(-c3ccc(NS(=O)(=O)c4ccc(OC)cc4)cc3F)c2cc1OCCOC [P-0262, N-[4-[6,7-bis(2-methoxyethoxy)quinazolin-4-yl]-3-fluoro-phenyl]-4-methoxy-benzenesulfonamide] | 0.0001 to 1 | 0.0001 to 1
12 | Cc1nn(C)cc1-c1cc2ncnc(N3CCN(C(=O)N[C@@H](C)c4cccc(OC(F)F)c4)[C@H](C)C3)c2s1 [P-0587, (2R)-N-[(1S)-1-[3-(difluoromethoxy)phenyl]ethyl]-4-[6-(1,3-dimethylpyrazol-4-yl)thieno[3,2-d]pyrimidin-4-yl]-2-methyl-piperazine-1-carboxamide] | 0.0001 to 1 | 10 to 200
13 | Cc1cc2ncnc(-c3ccc(NS(C)(=O)=O)cc3)c2s1 [P-0622, N-[4-(6-methylthieno[3,2-d]pyrimidin-4-yl)phenyl]methanesulfonamide] | 1 to 10 | 10 to 200
14 | Cc1cc2c(N3CCN(C(=O)N[C@@H](C)c4cccc(OC(F)F)c4)[C@H](C)C3)ncnc2[nH]1 [P-0648, (2R)-N-[(1S)-1-[3-(difluoromethoxy)phenyl]ethyl]-2-methyl-4-(6-methyl-7H-pyrrolo[2,3-d]pyrimidin-4-yl)piperazine-1-carboxamide] | 0.0001 to 1 | 10 to 200
15 | C[C@H](NC(=O)N1CCN(c2ncnc3[nH]c(-c4ccc(F)cc4)cc23)CC1(C)C)c1ccc(F)cc1 [P-0642, N-[(1S)-1-(4-fluorophenyl)ethyl]-4-[6-(4-fluorophenyl)-7H-pyrrolo[2,3-d]pyrimidin-4-yl]-2,2-dimethyl-piperazine-1-carboxamide] | 0.0001 to 1 | 1 to 10
16 | CCCS(=O)(=O)Nc1ccc(-c2ncnc3[nH]c(-c4ccc(F)cc4)cc23)c(F)c1 [P-0397, N-[3-fluoro-4-[6-(4-fluorophenyl)-7H-pyrrolo[2,3-d]pyrimidin-4-yl]phenyl]propane-1-sulfonamide] | 0.0001 to 1 | 1 to 10
17 | N#Cc1cccc(-c2cc3c(N4CCN(C(=O)NCc5ccc(F)cc5)CC4)ncnc3[nH]2)c1 [P-0110, 4-[6-(3-cyanophenyl)-7H-pyrrolo[2,3-d]pyrimidin-4-yl]-N-[(4-fluorophenyl)methyl]piperazine-1-carboxamide] | 1 to 10 | 10 to 200
18 | CCS(=O)(=O)Nc1ccc(-c2ncnc3[nH]c(-c4ccc(F)cc4)cc23)c(F)c1 [P-0381, N-[3-fluoro-4-[6-(4-fluorophenyl)-7H-pyrrolo[2,3-d]pyrimidin-4-yl]phenyl]ethanesulfonamide] | 0.0001 to 1 | 0.0001 to 1
19 | C[C@H](NC(=O)N1CCN(c2ncnc3[nH]c(-c4ccc(F)cc4)cc23)CC1(C)C)c1ccc(Cl)cc1 [P-0700, N-[(1S)-1-(4-chlorophenyl)ethyl]-4-[6-(4-fluorophenyl)-7H-pyrrolo[2,3-d]pyrimidin-4-yl]-2,2-dimethyl-piperazine-1-carboxamide] | 0.0001 to 1 | 1 to 10
20 | O=S(=O)(NC1CC1)c1cccc(-c2ncnc3[nH]c(-c4ccc(F)cc4)cc23)c1 [P-0429, N-cyclopropyl-3-[6-(4-fluorophenyl)-7H-pyrrolo[2,3-d]pyrimidin-4-yl]benzenesulfonamide] | 0.0001 to 1 | 0.0001 to 1
21 | COc1ccc(NC(=O)N2CCN(c3ncnc4[nH]ccc34)CC2)cc1 [P-0235, N-(4-methoxyphenyl)-4-(7H-pyrrolo[2,3-d]pyrimidin-4-yl)piperazine-1-carboxamide] | 1 to 10 | 10 to 200
22 | Cc1cc2c(-c3ccc(NS(=O)(=O)c4ccc(OC(F)F)cc4)cc3)ncnc2[nH]1 [P-0329, 4-(difluoromethoxy)-N-[4-(6-methyl-7H-pyrrolo[2,3-d]pyrimidin-4-yl)phenyl]benzenesulfonamide] | 10 to 200 | 10 to 200
23 | Cc1nc(C)c(-c2cc3c(N4CCC(NS(=O)(=O)c5ccc(OC(F)(F)F)cc5)CC4)ncnc3[nH]2)s1 [P-0664, N-[1-[6-(2,4-dimethylthiazol-5-yl)-7H-pyrrolo[2,3-d]pyrimidin-4-yl]-4-piperidyl]-4-(trifluoromethoxy)benzenesulfonamide] | 0.0001 to 1 | 1 to 10
